Numbered stars: 1 amine (or outer) side, 2 acyl side, 3 side chain; on linkers, the order of the positions; unused ones are H or OH. Square brackets hold non-standard residues; d marks the D form. Peptide text beside a SMILES is read from it. X1 = C[C@@H](O)[C@@H](C(=O)[*:2])N(c1c2ccccc2nc2ccccc12)[*:1]
Tested on: CHO cells
Test: MTT cell viability (cytotoxicity) assay
Assay type: cell-based, Chinese hamster
Conditions: concentrations as high as 100 μM, 2 hour incubation period
From the text: The cytotoxicity of peptide 1 and octopeptides 2-5 was established in Chinese hamster ovary (CHO) cells in order to select a minimal octopeptide concentration suitable for detecting the constructs by flow cytometry and fluorescence microscopy on live cells. The cytotoxicity of each construct was established using the MTT cell viability assay (FIG. 1; Mosmann, 1983). […] Linear polymers having a mass of less than 13 kDa were shown not to be cytotoxic to HeLa cells (Arnold et al., 1979). […] At a concentration of 1 μM, none of the octopeptides were cytotoxic to CHO cells (FIG. 1). […] The penetration and localization of acridine and rhodamine chromophores in viable CHO cells were observed during fluorescence microscopy and flow cytometry experiments by exposing cells to concentrations of octopeptides ranging from 0.1 to 1 μM. […]
The quantitative MTT colorimetric assay developed by Mosmann (1983) was used to determine the toxicity of peptide constructs of the invention toward CHO cells. […] The blue MTT formazan product generated by living cells was quantified by measuring the optical density of the cellular extract at 620 nm. […] Absorbance values were translated into measurements of cell viability and reflect the average of experiments performed in triplicate.

CC(C)[C@H](NC(=O)[C@H](CCCCN)NC(=O)[C@H](CCCNC(=N)N)NC(=O)[C@H](CCCCN)NC(=O)[C@H](CCCCN)NC(=O)[C@H](CCCCN)NC(=O)[C@@H]1CCCN1C(=O)[C@@H]1CCCN1C(=O)[C@@H](Nc1c2ccccc2nc2ccccc12)[C@@H](C)O)C(=O)N[C@@H](CCC(=O)O)C(=O)N[C@@H](CC(=O)O)C(=O)N1CCC[C@H]1C(=O)N[C@@H](CCCCN)C(=O)N[C@@H](CCCCN)C(=O)N[C@@H](CCCCN)C(=O)N[C@@H](CCCCN)C(=O)N[C@@H](CCCCN)C(=O)O [peptide 1, Acr-NLS-CTS] (H-[X1]PPKKKRKVEDPKKKKK-OH)
toxicity to CHO cells: not toxic
